From US6664241B2, “Water-soluble amide derivatives of polyene macrolides and preparation and uses thereof” (Micrologix Biotech Inc., priority 2000, dated 2003)
In brackets after ≈: the same amount, converted by molar mass.

Tests used:
C. albicans [1] = test: 5 day kidney bioburden evaluation in immunocompetent mice challenged with C. albicans; format: in vivo, Swiss-Webster mice; settings: Candida albicans, ip, 120 h; intraperitoneally once daily for 5 days, immunocompetent mice, C. albicans; 50% of animals with 2 log10 reduction in kidney CFU; read-out: ED50 mice 5 day
Description: (§1) A variety of the compounds synthesized as described in Section 5, supra, were tested in various in vivo assays, as described below. The results of the various assays are provided in TABLE 3, presented at the end of this section. In all of the in vivo assays described, the test compounds, in the form of the aspartate salts, were formulated in an aqueous vehicle (5% mannitol in sterile water; OSMITROL, Baxter Healthcare, Deerfield, Ill.), followed by appropriate dilutions. The formulations were prepared fresh before dosing.
(§2) AmB and AME were also tested for comparison. For AmB, the commercially available FUNGIZONE (Bristol-Meyers Squibb Co.) was used. Reported values are based upon the weight of the AmB active ingredient, not on the basis of the weight of the FUNGIZONE powder. AME was formulated in OSMITROL as described for the test compounds.
Various polyene macrolide amide derivatives of the invention were evaluated for their protective effect when administered intraperitoneally once daily for 5 days to immunocompetent mice challenged with live C. albicans.
C. albicans was grown on Sabouraud dextrose agar (SDA) plates for 48 hr. Colonies were harvested and washed twice by centrifugation in phosphate-buffered saline (PBS). The washed pellets were resuspended in PBS and diluted to achieve the desired number of fungi per milliliter. A portion of the inoculum was plated on SDA plates to determine the colony-forming units (CFU) per milliliter.
(§3) Swiss-Webster mice (Simonsen Laboratories, Gilroy, Calif.) were administered by intravenous injection a single inoculum (0.2 mL) containing as estimated 2.0×10^5 CFU of C. albicans. The day of inoculation was designated as study day 0. Beginning three days after injection, mice were treated intraperitoneally with vehicle alone or formulated test compound once daily for 5 consecutive days.
(§4) The mice were observed daily from study day 0 through study day 10 (3 days after the last dose). Mice found dead or euthanized in extremis were removed from the study without further processing. Surviving mice were euthanized by inhalation of CO2 on study day 10 and both kidneys from each mouse were removed. Each pair of removed kidneys was homogenized in 3 mL of ice-cold PBS containing 10% glycerol. A portion of each homogenate was used to determine log10 CFU per kidney using SDA plates (48 hours of incubation at 30° C.). Kidney log10 CFU data were analyzed using a t-test. The criterion for a statistically significant response was set at p<0.01.
(§5) For comparison, the results for AmB and AME are also provided. Efficacy was defined for individual animals as a greater than 2 log10 reduction in kidney CFU relative to the mean vehicle control value.

C. albicans [2] = test: Minimum Inhibitory Concentrations (MICs) against C. albicans, NCCLS M27-A broth dilution; format: cell-based; settings: Candida albicans, read-out: MIC
Description: For each compound synthesized, Minimum Inhibitory Concentrations (MICs) against C. albicans were determined as described in Reference Method for Broth Dilution Antifungal Susceptibility Testing of Yeasts, Approved Standard, NCCLS document M27-A (ISBN 1-56238-328-0), NCCLS, 940 West Valley Road, Suite 1400, Wayne, Pa. 19087, 1997.

[3] = Maximum non-lethal dose (NLD), single intravenous dose in mice; format: in vivo, Swiss-Webster male mice; settings: test compounds as aspartate salts in 5% mannitol, AmB as FUNGIZONE
Description: as §1, §2
Maximum non-lethal dose (NLD) data were obtained for selected compounds. A single intravenous dose was administered to each of four mice (Swiss-Webster male mice; Simonsen Laboratories, Gilroy, Calif.) in several groups. The doses selected were based upon the NLDs of compounds of similar structures. After review of findings, higher or lower doses were administered and a NLD was determined. The results are tabulated in TABLE 3, below (NLD Acute Mice). The values for AmB and AME are provided for comparison

[4] = Two week range-finding toxicity study in mice; format: in vivo, CD-1 mice; settings: both sexes, CD-1, mouse, in vivo, iv
Description: as §1, §2
Various polyene macrolide amide derivatives of the invention were evaluated to characterize their potential toxicity when administered subchronically by intravenous injection.
CD-1® mice (Charles River Laboratories, Portage, Mich.) were acclimated to laboratory conditions for at least 5 days before the start of dosing. During the acclimation period, the general condition of the mice was evaluated, and those considered healthy were used. The mice were randomly assigned to treatment groups using a stratified body weight regimen. Each treatment group consisted of 3 male and 3 female mice. The mice were housed in a room with a controlled environment and provided rodent chow and water ad libitum.
On the first day of dosing, the mice were approximately 7 to 9 weeks old and weighed 22 to 30 g. Doses were administered by intravenous injection once daily on study days 1 to 5 and 8 to 12. Dosages were selected based upon data from efficacy and toxicology studies, and ranged from 1.25 to 30 mg/kg/day. Clinical observations were recorded 0.5 hr after dosing on days 1, 3, 5, 8, 10, 12 and 15, and on any day a change was observed. Body weights were recorded prior to dosing and on study days 8 and 12, and on study day 15 at the completion of the in-life phase of the study.
Animals that were found in a moribund/deteriorating clinical state were euthanized (animal designated killed in extremis) by inhalation of CO2. The day of death for any animal found dead or killed in extremis was recorded. Any animal that died prematurely was removed from the study without further processing.
One day after completion of dosing (study day 16), all surviving mice were euthanized by inhalation of CO2. Their kidneys were preserved for histopathologic examination. The maximum no-observed-adverse-effect level (NOAEL) was determined on the basis of clinical and histopathologic findings. The values for AmB and AME are provided for comparison.

C. albicans [5] = test: 7 day kidney bioburden evaluation in neutropenic mice challenged with C. albicans; format: in vivo, Swiss-Webster mice; settings: Candida albicans, ip, 168 h, intraperitoneally once daily for 7 days, 50% of animals with 2 log10 reduction in kidney CFU
Description: as §1, §2
Various polyene macrolide amide derivatives of the invention were evaluated for their protective effect when administered intraperitoneally once daily for 7 days to neutropenic mice challenged with live C. albicans.
as §3, with “made neutropenic by intravenous administration of 5-fluorouracil (150 mg/kg) on study day −1. On study day 0, all mice received” for “administered”, “5.0×10^4” for “2.0×10^5”, “the day” for “three days”, “infection (on study day 1),” for “injection,”, “compound,” for “compound”, “7” for “5”
as §4, with “day 1” for “day 0”, “day 8 (1 day” for “day 10 (3 days”, “day 8” for “day 10”
as §5

Compound	ED50 (C. albicans [1]) [mg/kg]	MIC (C. albicans [2]) [µg/mL]	NLD acute mice [3] [mg/kg]	NOAEL at 2 week ([4]; NOAEL 2 week mice clinical) [mg/kg]	NOAEL at 2 week ([4]; NOAEL 2 week mice histological) [mg/kg]	ED50 (C. albicans [5]) [mg/kg]
CC1[C@H](C)OC(=O)C[C@H](O)C[C@H](O)CC[C@@H](O)[C@H](O)C[C@H](O)C[C@]2(O)C[C@H](O)C(C(=O)NCC(O)C(O)C(O)C(O)CO)C(C[C@@H](OC3O[C@H](C)[C@@H](O)[C@H](NC[C@@]4(O)OC[C@@H](O)[C@@H](O)[C@@H]4O)[C@@H]3O)/C=C/C=C/C=C/C=C/C=C/C=C/C=C/[C@H](C)[C@H]1O)O2 (some centres unmarked) [Compound 103]	15	1.1 (≈ 0.88 µM)	10			
CC1[C@H](C)OC(=O)C[C@H](O)C[C@H](O)CC[C@@H](O)[C@H](O)C[C@H](O)C[C@]2(O)C[C@H](O)C(C(=O)NCCCN3CCOCC3)C(C[C@@H](OC3O[C@H](C)[C@@H](O)[C@H](NC[C@@]4(O)OC[C@@H](O)[C@@H](O)[C@@H]4O)[C@@H]3O)/C=C/C=C/C=C/C=C/C=C/C=C/C=C/[C@H](C)[C@H]1O)O2 (some centres unmarked) [Compound 104]	9	2 (≈ 1.65 µM)	20	10	< 10	3.1
CC1[C@H](C)OC(=O)C[C@H](O)C[C@H](O)CC[C@@H](O)[C@H](O)C[C@H](O)C[C@]2(O)C[C@H](O)C(C(=O)N3CCN(C)CC3)C(C[C@@H](OC3O[C@H](C)[C@@H](O)[C@H](NC[C@@]4(O)OC[C@@H](O)[C@@H](O)[C@@H]4O)[C@@H]3O)/C=C/C=C/C=C/C=C/C=C/C=C/C=C/[C@H](C)[C@H]1O)O2 (some centres unmarked) [Compound 106]	3	2 (≈ 1.71 µM)	<15	3	6	
CC1[C@H](C)OC(=O)C[C@H](O)C[C@H](O)CC[C@@H](O)[C@H](O)C[C@H](O)C[C@]2(O)C[C@H](O)C(C(=O)NCCN3CCCCC3)C(C[C@@H](OC3O[C@H](C)[C@@H](O)[C@H](NC[C@@]4(O)OC[C@@H](O)[C@@H](O)[C@@H]4O)[C@@H]3O)/C=C/C=C/C=C/C=C/C=C/C=C/C=C/[C@H](C)[C@H]1O)O2 (some centres unmarked) [Compound 107]	28	2 (≈ 1.67 µM)	>40			
CC1[C@H](C)OC(=O)C[C@H](O)C[C@H](O)CC[C@@H](O)[C@H](O)C[C@H](O)C[C@]2(O)C[C@H](O)C(C(=O)NCC(O)C(O)C(O)C(O)CO)C(C[C@@H](OC3O[C@H](C)[C@@H](O)[C@H](NC[C@@]4(O)OC[C@@H](O)[C@H](O)[C@@H]4O)[C@@H]3O)/C=C/C=C/C=C/C=C/C=C/C=C/C=C/[C@H](C)[C@H]1O)O2 (some centres unmarked) [Compound 110]	15	1 (≈ 0.8 µM)	10			
CC1[C@H](C)OC(=O)C[C@H](O)C[C@H](O)CC[C@@H](O)[C@H](O)C[C@H](O)C[C@]2(O)C[C@H](O)C(C(=O)NCCCN3CCOCC3)C(C[C@@H](OC3O[C@H](C)[C@@H](O)[C@H](NC[C@@]4(O)OC[C@@H](O)[C@H](O)[C@@H]4O)[C@@H]3O)/C=C/C=C/C=C/C=C/C=C/C=C/C=C/[C@H](C)[C@H]1O)O2 (some centres unmarked) [Compound 111]	7	2.7 (≈ 2.23 µM)	20	< 7	7	
CC1[C@H](C)OC(=O)C[C@H](O)C[C@H](O)CC[C@@H](O)[C@H](O)C[C@H](O)C[C@]2(O)C[C@H](O)C(C(=O)N3CCN(C)CC3)C(C[C@@H](OC3O[C@H](C)[C@@H](O)[C@H](NC[C@@]4(O)OC[C@@H](O)[C@H](O)[C@@H]4O)[C@@H]3O)/C=C/C=C/C=C/C=C/C=C/C=C/C=C/[C@H](C)[C@H]1O)O2 (some centres unmarked) [Compound 113]	2	3.3 (≈ 2.82 µM)	7.5	> 5	1.25	
CCN1CCN(C(=O)C2C3C[C@@H](OC4O[C@H](C)[C@@H](O)[C@H](NC[C@@]5(O)OC[C@@H](O)[C@H](O)[C@@H]5O)[C@@H]4O)/C=C/C=C/C=C/C=C/C=C/C=C/C=C/[C@H](C)[C@@H](O)C(C)[C@H](C)OC(=O)C[C@H](O)C[C@H](O)CC[C@@H](O)[C@H](O)C[C@H](O)C[C@](O)(C[C@@H]2O)O3)CC1 (some centres unmarked) [Compound 133]	4.1		15	< 5		
CC1[C@H](C)OC(=O)C[C@H](O)C[C@H](O)CC[C@@H](O)[C@H](O)C[C@H](O)C[C@]2(O)C[C@H](O)C(C(=O)N3CCN(Cc4ccccc4)CC3)C(C[C@@H](OC3O[C@H](C)[C@@H](O)[C@H](NC[C@@]4(O)OC[C@@H](O)[C@H](O)[C@@H]4O)[C@@H]3O)/C=C/C=C/C=C/C=C/C=C/C=C/C=C/[C@H](C)[C@H]1O)O2 (some centres unmarked) [Compound 134]	> 30	1 (≈ 0.804 µM)	30			
CC1[C@H](C)OC(=O)C[C@H](O)C[C@H](O)CC[C@@H](O)[C@H](O)C[C@H](O)C[C@]2(O)C[C@H](O)C(C(=O)N3CCN(CCO)CC3)C(C[C@@H](OC3O[C@H](C)[C@@H](O)[C@H](NC[C@@]4(O)OC[C@@H](O)[C@H](O)[C@@H]4O)[C@@H]3O)/C=C/C=C/C=C/C=C/C=C/C=C/C=C/[C@H](C)[C@H]1O)O2 (some centres unmarked) [Compound 135]	1.6	6.3 (≈ 5.26 µM)	10	1.25	> 5	
CC1[C@H](C)OC(=O)C[C@H](O)C[C@H](O)CC[C@@H](O)[C@H](O)C[C@H](O)C[C@]2(O)C[C@H](O)C(C(=O)N3CCN(c4ccccc4)CC3)C(C[C@@H](OC3O[C@H](C)[C@@H](O)[C@H](NC[C@@]4(O)OC[C@@H](O)[C@H](O)[C@@H]4O)[C@@H]3O)/C=C/C=C/C=C/C=C/C=C/C=C/C=C/[C@H](C)[C@H]1O)O2 (some centres unmarked) [Compound 136]	40.2	0.4 (≈ 0.325 µM)	>15			
